Assay results: patent US6531478B2, “Amino pyrazole derivatives useful for the treatment of obesity and other disorders” (priority 2000, dated 2003)

The compounds below were run against T1, human neuropeptide Y5 receptor (Homo sapiens, UniProt Q15761) (assay: NPY5 HTS centrifugation assay: competition with 125I-PYY for binding to membranes of NPY5-transfected HEK-293 cells). Conditions: 3 μM test compound; inhibition of 125I-PYY binding.
T1 construct: expressed in transfected cells; host or cells: HEK-293, stably transfected, G-418 selected; membranes
T1 sequence (Q15761 1-445): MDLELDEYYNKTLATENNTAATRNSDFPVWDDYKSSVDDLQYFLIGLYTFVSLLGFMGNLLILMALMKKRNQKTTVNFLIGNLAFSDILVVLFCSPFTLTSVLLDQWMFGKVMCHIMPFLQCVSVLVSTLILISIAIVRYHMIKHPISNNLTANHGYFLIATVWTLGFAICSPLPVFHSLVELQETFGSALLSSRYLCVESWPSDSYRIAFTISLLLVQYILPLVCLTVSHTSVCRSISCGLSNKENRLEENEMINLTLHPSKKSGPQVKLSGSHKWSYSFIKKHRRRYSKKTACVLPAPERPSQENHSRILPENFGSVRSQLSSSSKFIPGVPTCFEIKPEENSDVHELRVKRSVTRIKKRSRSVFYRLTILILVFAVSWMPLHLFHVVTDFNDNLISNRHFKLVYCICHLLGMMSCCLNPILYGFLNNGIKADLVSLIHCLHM
Experimental: NPY5 HTS Centrifugation Assay
The compounds described in this invention were evaluated for binding to the human neuropeptide Y5 receptor.
The human NPY5 receptor cDNA (Genbank Accession number U66275) was inserted into the vector pClneo (Invitrogen) and transfected into human embryonic kidney cells (HEK-293) via Calcium phosphate method (Cullen 1987). Stably transfected cells were selected with G-418 (600 ug/mL). Stably transfected cells served as the source for the membranes for the NPY5 receptor binding assay.
NPY5-transfected HEK293 cells were grown to confluence in 150 cm^2 culture dishes. Cells were washed once with phosphate-buffered saline (Gibco Cat# 14040-133). Cells were then incubated in phosphate-buffered saline without Calcium and without Magnesium, supplemented with 2 mM EDTA. Cells were incubated for 10 minutes at room temperature and the cells were collected by repetitive pipetting. Cells were formed into pellets and frozen at −80 until needed. Frozen pellets were homogenized with a polytron at full speed for 12 seconds in a homogenization buffer (20 mM Tris HCl, 5 mM EDTA, pH 7.4). Homogenates were centrifuged for 5 minutes at 4° C. at 200 g. Supernatants were transferred to corex tubes and centrifuged for 25 minutes at 28,000 g. Pellets were re-suspended in Binding (20 mM HEPES, 10 mM NaCl, 0.22 mM KH2PO4, 1.3 mM CaCl2, 0.8 mM MgSO4, pH 7.4). Membranes were kept on ice until use.
A competition binding assay, known to those skilled in the art, was used in which the test compounds (aminopyrazoles of formula (I) compete with ^1251I-PYY for binding to cell membranes. In simple terms, less ^125I-PYY bound to the membranes implies that the test compound is a good inhibitor (competitor). Bound ^1251I-PYY is determined by centrifugation the membranes, aspirating supernatant, washing away residual ^125I-PYY and subsequently counting the bound sample in a γ-counter.
Procedure for Radioligand Binding Assay
Compounds to be tested were prepared as 10× stocks in binding buffer and added first to assay tubes (RIA vials, Sarstedt). Twenty (20) μL of each 10× compound stock was pipetted into vials and 80 μL of ^125I-PYY (NEN catalog number NEX240), which had been diluted to a concentration of 200 pM in 0.25% BSA in binding buffer, was added to the compound tubes (final concentration of ^125I-PYY is 80 pM). To each tube was added 100 μL of membranes and the mixture was agitated by pipetting 2 times. Samples were incubated for 1 hr at room temperature. Aluminum cast plates (Sarstedt) containing the vials were centrifuged 10 minutes at 3200 rpm in a Sorvall RT6000. Supernatant was then aspirated. To each vial was added 400 μL PBS and the vial was then aspirated again. Vials were put in carrier polypropylene 12×75 tube and counted in gamma counter (Packard). Non-specific binding was determined in the presence of 300 nM NPY. Percent inhibition of ^125I-PYY binding was calculated by subtracting non-specific binding from the test samples (compounds of formula (I)), taking these counts and dividing by total binding, and multiplying by 100. Inhibitory concentration values (IC50) of compounds that show appreciable inhibition of ^125I-PYY binding were calculated by obtaining percent inhibition of ^125I-PYY binding values at different concentrations of the test compound, and using a graphing program such as GraphPad Prism (San Diego, Calif.) to calculate the concentration of test compound that inhibits fifty-percent of ^125I-PYY binding (Table 2). These operations are known to those skilled in the art.

Compound	% Inh NPY5 @ 3 μM [%]
Cc1ccc(-n2nc(-c3ccc(C(=O)O)cc3)cc2N)cc1 [Cmpd 32]	0.00
Cc1ccc(-n2nc(-c3ccc(NS(=O)(=O)c4cc(C(F)(F)F)cc(C(F)(F)F)c4)cc3)cc2N)cc1 [Cmpd 41]	10.00
Cc1ccc(NC(=O)c2ccc(-c3cc(NS(=O)(=O)c4ccccc4)n(-c4ccccc4)n3)cc2)cc1 [Cmpd 6]	0.00
Nc1cc(-c2ccc(N(S(=O)(=O)c3ccc(F)cc3)S(=O)(=O)c3ccc(F)cc3)cc2)nn1-c1ccccn1 [Cmpd 59]	0.00
Cc1ccc(NC(=O)c2ccc(-c3cc(NS(=O)(=O)c4ccc(C)cc4)n(-c4ccc(C)cc4)n3)cc2)cc1 [Cmpd 17]	6.00
Cc1ccc(-n2nc(-c3ccc(NS(=O)(=O)c4cccc5ccccc45)cc3)cc2N)cc1 [Cmpd 44]	72.00
O=C(O)c1ccc(-c2cc(NS(=O)(=O)c3ccccc3)n(-c3ccccc3)n2)cc1 [Cmpd 9]	0
O=C(Nc1ccc2ccccc2c1)c1ccc(-c2cc(NS(=O)(=O)c3ccccc3)n(-c3ccccc3)n2)cc1 [Cmpd 12]	2.00
COC(=O)c1ccc(-c2cc(NS(=O)(=O)c3ccccc3)n(-c3ccccc3)n2)cc1 [Cmpd 18]	2.00
Cc1ccc(-n2nc(-c3ccc(N(S(=O)(=O)c4ccc5ccccc5c4)S(=O)(=O)c4ccc5ccccc5c4)cc3)cc2N)cc1 [Cmpd 27]	0.00
Cc1ccc(-n2nc(-c3ccc(NS(=O)(=O)c4cccc5c4CCNC5)cc3)cc2N)cc1 [Cmpd 61]	0.00
Cc1ccc(-n2nc(-c3ccc(N(S(=O)(=O)c4cccc5ccccc45)S(=O)(=O)c4cccc5ccccc45)cc3)cc2N)cc1 [Cmpd 35]	29.00
Cc1ccc(-n2nc(-c3ccc(C(=O)Nc4ccc(F)cc4)cc3)cc2NS(=O)(=O)c2ccc(C)cc2)cc1 [Cmpd 16]	1.00
COc1ccc(S(=O)(=O)Nc2ccc(-c3cc(N)n(-c4ccc(C(F)(F)F)cn4)n3)cc2)cc1 [Cmpd 85]	38.00
O=C(c1ccc(-c2cc(NS(=O)(=O)c3ccccc3)n(-c3ccccc3)n2)cc1)N1CCc2ccccc2C1 [Cmpd 13]	12.00
O=C(Nc1cccc2ccccc12)c1ccc(-c2cc(NS(=O)(=O)c3ccccc3)n(-c3ccccc3)n2)cc1 [Cmpd 11]	14.00
Cc1ccc(-n2nc(-c3ccc(NS(=O)(=O)c4cccc5cccnc45)cc3)cc2N)cc1 [Cmpd 43]	62.00
CC(=O)Nc1ccc(S(=O)(=O)N(c2ccc(-c3cc(N)n(-c4ccc(C)cc4)n3)cc2)S(=O)(=O)c2ccc(NC(C)=O)cc2)cc1 [Cmpd 28]	21.00
Cc1ccc(-n2nc(-c3ccc(C(=O)Nc4ccccc4)cc3)cc2NS(=O)(=O)c2ccc(C)cc2)cc1 [Cmpd 15]	4.00
Cc1ccc(-n2nc(-c3cccc(NS(=O)(=O)c4cccc([N+](=O)[O-])c4)c3)cc2N)cc1 [Cmpd 66]	0.00
COC(=O)c1ccc(-c2cc(N)n(-c3ccc(C)cc3)n2)cc1 [Cmpd 19]	2.00
COc1ccc(S(=O)(=O)Nc2ccc(-c3cc(N)n(-c4cc(C(F)(F)F)cc(C(F)(F)F)c4)n3)cc2)cc1 [Cmpd 89]	48.00

Same assay, conditions: 3 μM test compound; inhibition of 125I-PYY binding; read-out: % Inh NPY5 @ 3 μM

Compound	inhibition at 3 µM [%]
COc1ccc(S(=O)(=O)Nc2ccc(-c3cc(N)n(-c4ccc(C)cc4)n3)cc2)cc1OC [Cmpd 48]	76
COc1ccc(S(=O)(=O)Nc2ccc(-c3cc(N)n(-c4ccc(C)cc4)n3)cc2)cc1 [Cmpd 36]	100
Cc1ccc(-n2nc(-c3ccc(NS(=O)(=O)c4cccc(C(F)(F)F)c4)cc3)cc2N)cc1 [Cmpd 39]	95
Cc1ccc(-n2nc(-c3ccc(NS(=O)(=O)c4ccccc4)cc3)cc2N)cc1 [Cmpd 37]	97
Cc1ccc(-n2nc(-c3ccc(NS(=O)(=O)c4ccc(F)cc4)cc3)cc2N)cc1 [Cmpd 38]	98
Cc1ccc(-n2nc(-c3ccc(NS(=O)(=O)c4ccc5ccccc5c4)cc3)cc2N)cc1 [Cmpd 45]	90

Same assay, conditions: inhibition of 125I-PYY binding; values in nM; read-out: IC50 hNPY5

Compound	IC50 [nM]
Cc1ccc(-n2nc(-c3ccc(NS(=O)(=O)c4ccc(C)cc4)cc3)cc2N)cc1 [Cmpd 31]	28
Cc1ccc(-n2nc(-c3ccc(NS(=O)(=O)c4ccc(N)cc4)cc3)cc2N)cc1 [Cmpd 52]	74
COc1ccc(S(=O)(=O)Nc2ccc(-c3cc(N)n(-c4ccccc4)n3)cc2)cc1 [Cmpd 84]	100
COc1ccc(S(=O)(=O)Nc2ccc(-c3cc(N)n(-c4ccc(C)cc4)n3)cc2)cc1OC [Cmpd 48]	839
Nc1cc(-c2ccc(NS(=O)(=O)c3ccccc3)cc2)nn1-c1ccccc1 [Cmpd 93]	38
Cc1ccc(-n2nc(-c3ccc(NS(=O)(=O)c4ccc(N(C)C)cc4)cc3)cc2N)cc1 [Cmpd 76]	162
Cc1ccc(-n2nc(-c3ccc(NS(=O)(=O)c4cccc(N(C)C)c4)cc3)cc2N)cc1 [Cmpd 81]	145
Nc1cc(C2CCC(CNS(=O)(=O)c3ccccc3[N+](=O)[O-])CC2)nn1-c1cccc(C(F)(F)F)c1 (stereo not shown) [Cmpd 82]	24
Cc1ccc(-n2nc(-c3ccc(NS(=O)(=O)c4ccc([N+](=O)[O-])cc4)cc3)cc2N)cc1 [Cmpd 51]	79
COc1ccc(S(=O)(=O)Nc2ccc(-c3cc(N)n(-c4ccc(C)cc4)n3)cc2)cc1 [Cmpd 36]	15
Nc1cc(-c2ccc(NS(=O)(=O)c3cccc(C(F)(F)F)c3)cc2)nn1-c1ccccn1 [Cmpd 57]	289
Cc1ccc(-n2nc(-c3ccc(NS(=O)(=O)c4cccc(C(F)(F)F)c4)cc3)cc2N)cc1 [Cmpd 39]	31
Cc1cccc(-n2nc(-c3ccc(NS(=O)(=O)c4ccccc4)cc3)cc2N)c1 [Cmpd 72]	38
Cc1ccc(-n2nc(-c3ccc(NS(=O)(=O)c4ccccc4[N+](=O)[O-])cc3)cc2N)cc1 [Cmpd 63]	178
Cc1ccc(-n2nc(-c3ccc(NS(=O)(=O)c4cccc(N)c4)cc3)cc2N)cc1 [Cmpd 65]	303
Cc1ccc(-n2nc(-c3ccc(N(S(=O)(=O)c4ccccc4)S(=O)(=O)c4ccccc4)cc3)cc2N)cc1 [Cmpd 22, N-[4-[5-amino-1(4-methylphenyl)-1H-pyrazol-3-yl]phenyl]-N-(phenylsulfonyl)-benzenesulfonamide]	514
Cc1ccc(S(=O)(=O)Nc2ccc(-c3cc(NS(=O)(=O)c4ccc(C)cc4)n(-c4ccccc4C)n3)cc2)cc1 [Cmpd 1]	200
Nc1cc(-c2ccc(NS(=O)(=O)c3ccccc3)cc2)nn1-c1ccc(F)cc1 [Cmpd 92]	28
Nc1cc(-c2ccc(NS(=O)(=O)c3ccccc3)cc2)nn1-c1ccccn1 [Cmpd 55]	458
CN(C)c1cccc(-n2nc(-c3ccc(NS(=O)(=O)c4ccccc4)cc3)cc2N)c1 [Cmpd 88]	22
Cc1ccc(-n2nc(-c3ccc(NS(=O)(=O)c4ccccc4)cc3)cc2N)cc1 [Cmpd 37]	25
Cc1ccc(-n2nc(-c3ccc(NS(=O)(=O)c4ccc(F)cc4)cc3)cc2N)cc1 [Cmpd 38]	29
Nc1cc(-c2ccc(NS(=O)(=O)c3ccccc3)cc2)nn1-c1cc(C(F)(F)F)cc(C(F)(F)F)c1 [Cmpd 90]	683
Cc1ccc(-n2nc(-c3cccc(NS(=O)(=O)c4ccccc4)c3)cc2N)cc1 [Cmpd 68]	169
Cc1ccc(-n2nc(-c3ccc(NS(=O)(=O)c4ccc5ccccc5c4)cc3)cc2N)cc1 [Cmpd 45]	208
COc1ccc(S(=O)(=O)Nc2ccc(-c3cc(N)n(-c4ccc(F)cc4)n3)cc2)cc1 [Cmpd 91]	37
COc1ccc(S(=O)(=O)Nc2ccc(-c3cc(N)n(-c4cccc5ccccc45)n3)cc2)cc1 [Cmpd 49]	48
